# Source: patent US20110097274A1, “Carbon-11 and fluorine-18 labeled radioligands for positron emission tomography (PET) imaging for the brain serotonin transporters” (priority 2002, published 2011)
# “And” between values parts separate entries of the source, which are not always exact repeats. Identical values can stand only once.
# Test system: SERT
# Assay: Baboon PET imaging: brain uptake, kinetic analysis and SERT parameters
# Assay type: in vivo
# Protocol: PET imaging protocol: PET experiments (n=20) were performed at Columbia University. Two adult male baboons (baboon A and B) were studied twice with each of the 5 radioligands (4 experiments per radioligand). All experiments took place within a 9-month period. Baboons A and B were 31 kg and 21 kg in weight at the beginning of the experimental period and 28 and 22 kg at the end, respectively. Test and retest experiments with the same radioligand were obtained on different days, with an average interval of 117±53 days.
# Experiments were performed according to protocols approved by the Columbia-Presbyterian Medical Center Institutional Animal Care and Use Committee. Fasted animals were immobilized with ketamine (10 mg/kg i.m.), and anesthetized with 1.8% isoflurane via an endotracheal tube. Vital signs were monitored every 10 minutes and the temperature was kept constant at 37° C. with heated water blankets. An i.v. perfusion line was used for hydration and injection of radioligands and nonradioactive drugs. A catheter was inserted in a femoral artery for arterial blood sampling. Head was positioned at the center of the field of view as defined by imbedded laser lines. PET imaging was performed with the ECAT EXACT HR+PET scanner (Siemens/CTI, Knoxville, Tenn.). In 3D mode, this camera provides an in-plane resolution of 4.3 mm, 4.5 mm, 5.4 mm and 8.0 mm full width at half maximum (FWHM) at a distance of 0, 1, 10 and 20 cm from the center of the field of view, respectively (Brix et al., 1997). A 15 minute transmission scan was obtained prior to radioligand injection for attenuation correction. Activity was injected i.v. over 30 seconds. […] Emission data was collected in the 3D mode for 91 minutes as 21 successive frames of increasing duration (6*10 seconds, 2*1 minutes, 4*2 minutes, 2*5 minutes, and 7*10 minutes).
# Image analysis: A Magnetic Resonance Image (MRI) of each baboon's brain was obtained for the purpose of identifying the regions of interest (ROI) (T1-weighted axial MRI sequence, acquired parallel to the anterior-posterior commissure, TR 34 msec, TE 5 msec, flip angle of 45 degrees, slice thickness is 1.5 mm, zero gap, matrix 1.5 mm×1 mm×1 mm voxels). The following regions were drawn on the MR images: cerebellum, midbrain, thalamus, striatum, hippocampus, temporal cortex, cingulate cortex and occipital cortex.
# PET emission data were attenuation-corrected using the transmission scan, and frames were reconstructed using a Shepp filter (cutoff 0.5 cycles/projection rays). Reconstructed image files were then processed using the image analysis software MEDx (Sensor Systems, Inc., Sterling, Va.). An image was created by summing all the frames, and this summed image was used to define the registration parameters with the MR image, using between-modality automated image registration (AIR) algorithm (Woods et al., 1993). Registration parameters were then applied to the individual frames for registration to the MR data set. Regional boundaries were transferred to the individual registered PET frames, and time-activity curves were measured and decay-corrected. Right and left regions were averaged. For a given animal, the same regions were used for all radioligands.
# Brain uptake: Total brain uptake was expressed as percentage of the injected dose per gram of tissue (% ID g^−1) in a region encompassing the entire brain. Regional peak time was defined as the mid-time of the frame associated with the highest activity value. To estimate the degree of wash-out from the brain captured during the scan interval (91 minutes), the decrease in activity from the peak frame to the last frame was calculated and expressed in percentage of the peak activity.
# Kinetic analysis: Regional total distribution volumes (VT, mL g^−1) were derived with kinetic analysis of the regional time-activity curves, using the arterial plasma concentrations as input function. […]
# [1] = BP = VT ROI − VT CER, baboons, mean ± SD of four experiments
# [2] = Mean ± SD of four experiments in two baboons
# [3] = baboons, mean ± SD of four experiments
# [4] = last scan 90 minutes, baboons, mean ± SD of four experiments
# [5] = one-tissue compartment model, baboons, mean ± SD of four experiments
structure (smiles),measurement,setting,value
[11CH3]Sc1ccc([C@H]2CN3CCC[C@H]3c3ccccc32)cc1 [[^11C]McN 5652],Binding potential Cingulate Cortex,[1],5.4 ± 0.8 mL/g
same,Binding potential Hippocampus,[1],9.5 ± 2.3 mL/g
same,Binding potential Midbrain,[1],25.9 ± 6.1 mL/g
same,Binding potential Occipital Cortex,[1],2.9 ± 1.6 mL/g
same,Binding potential Striatum,[1],17.6 ± 4.0 mL/g
same,Binding potential Temporal Cortex,[1],6.2 ± 1.8 mL/g
same,Binding potential Thalamus,[1],28.8 ± 6.9 mL/g
same,Equilibrium specific to non-specific partition coefficient (V3″) Cingulate Cortex,"Baboon A, single experiment",0.21 and 0.17
same,Equilibrium specific to non-specific partition coefficient (V3″) Hippocampus,"Baboon A, single experiment",0.41 and 0.29
same,Equilibrium specific to non-specific partition coefficient (V3″) Midbrain,"Baboon A, single experiment",1.16 and 0.78
same,Equilibrium specific to non-specific partition coefficient (V3″) Occipital Cortex,"Baboon A, single experiment",0.13 and 0.18
same,Equilibrium specific to non-specific partition coefficient (V3″) Striatum,"Baboon A, single experiment",0.81 and 0.49
same,Equilibrium specific to non-specific partition coefficient (V3″) Temporal Cortex,"Baboon A, single experiment",0.34 and 0.23
same,Equilibrium specific to non-specific partition coefficient (V3″) Thalamus,"Baboon A, single experiment",1.17 and 0.82
same,Equilibrium specific to non-specific partition coefficient (V3″) Cingulate Cortex,"Baboon B, single experiment",0.20
same,Equilibrium specific to non-specific partition coefficient (V3″) Hippocampus,"Baboon B, single experiment",0.38 and 0.30
same,Equilibrium specific to non-specific partition coefficient (V3″) Midbrain,"Baboon B, single experiment",1.00 and 0.80
same,Equilibrium specific to non-specific partition coefficient (V3″) Occipital Cortex,"Baboon B, single experiment",0.05 and 0.07
same,Equilibrium specific to non-specific partition coefficient (V3″) Striatum,"Baboon B, single experiment",0.66 and 0.60
same,Equilibrium specific to non-specific partition coefficient (V3″) Temporal Cortex,"Baboon B, single experiment",0.18 and 0.16
same,Equilibrium specific to non-specific partition coefficient (V3″) Thalamus,"Baboon B, single experiment",1.15 and 1.00
same,Equilibrium specific to non-specific partition coefficient (V3″) Cingulate Cortex,[2],0.19 and 0.19 ± 0.02
same,Equilibrium specific to non-specific partition coefficient (V3″) Hippocampus,[2],0.34 and 0.34 ± 0.06
same,Equilibrium specific to non-specific partition coefficient (V3″) Midbrain,[2],0.94 and 0.94 ± 0.18
same,Equilibrium specific to non-specific partition coefficient (V3″) Occipital Cortex,[2],0.11 and 0.11 ± 0.06
same,Equilibrium specific to non-specific partition coefficient (V3″) Striatum,[2],0.64 and 0.64 ± 0.13
same,Equilibrium specific to non-specific partition coefficient (V3″) Temporal Cortex,[2],0.23 and 0.23 ± 0.08
same,Equilibrium specific to non-specific partition coefficient (V3″) Thalamus,[2],1.04 and 1.04 ± 0.16
same,"K1, average of all regions and all animals",baboons,0.93 ± 0.18 mL/g/min
same,"VT, average of all regions and all animals",baboons,39.7 ± 11.8 mL/g
same,"k2, average of all regions and all animals",baboons,0.025 ± 0.008 min⁻¹
same,Mean regional peak uptake time,"baboons, mean of all regions",28 ± 12 min
same,Mean regional wash-out (% decrease between peak time and last scan),"baboons, mean of all regions",24±13%
same,Regional uptake peak time Cerebellum,[3],15 ± 3 min
same,Regional uptake peak time Cingulate Cortex,[3],17 ± 3 min
same,Regional uptake peak time Hippocampus,[3],36 ± 8 min
same,Regional uptake peak time Midbrain,[3],39 ± 13 min
same,Regional uptake peak time Occipital Cortex,[3],17 ± 3 min
same,Regional uptake peak time Striatum,[3],34 ± 10 min
same,Regional uptake peak time Temporal Cortex,[3],27 ± 7 min
same,Regional uptake peak time Thalamus,[3],41 ± 6 min
same,Total brain uptake at 45 min,"baboons, region encompassing the entire brain",0.016±0.002 % ID g^−1
same,"Regional activity wash-out: % decrease from peak to last scan, Cerebellum",[4],44 ± 6%
same,"Regional activity wash-out: % decrease from peak to last scan, Cingulate Cortex",[4],34 ± 3%
same,"Regional activity wash-out: % decrease from peak to last scan, Hippocampus",[4],16 ± 3%
same,"Regional activity wash-out: % decrease from peak to last scan, Midbrain",[4],8 ± 5%
same,"Regional activity wash-out: % decrease from peak to last scan, Occipital Cortex",[4],34 ± 3%
same,"Regional activity wash-out: % decrease from peak to last scan, Striatum",[4],18 ± 7%
same,"Regional activity wash-out: % decrease from peak to last scan, Temporal Cortex",[4],24 ± 6%
same,"Regional activity wash-out: % decrease from peak to last scan, Thalamus",[4],12 ± 4%
same,K1 Cerebellum,[5],1.05 ± 0.20 mL/g/min
same,K1 Cingulate Cortex,[5],1.01 ± 0.24 mL/g/min
same,K1 Hippocampus,[5],0.74 ± 0.12 mL/g/min
same,K1 Midbrain,[5],0.92 ± 0.12 mL/g/min
same,K1 Occipital Cortex,[5],0.95 ± 0.18 mL/g/min
same,K1 Striatum,[5],0.95 ± 0.12 mL/g/min
same,K1 Temporal Cortex,[5],0.83 ± 0.19 mL/g/min
same,K1 Thalamus,[5],1.03 ± 0.15 mL/g/min
same,K2 Cerebellum,[5],0.038 ± 0.007 min⁻¹
same,K2 Cingulate Cortex,[5],0.031 ± 0.007 min⁻¹
same,K2 Hippocampus,[5],0.020 ± 0.003 min⁻¹
same,K2 Midbrain,[5],0.017 ± 0.003 min⁻¹
same,K2 Occipital Cortex,[5],0.031 ± 0.006 min⁻¹
same,K2 Striatum,[5],0.021 ± 0.003 min⁻¹
same,K2 Temporal Cortex,[5],0.025 ± 0.006 min⁻¹
same,K2 Thalamus,[5],0.019 ± 0.003 min⁻¹
same,"VT Cerebellum (VT CER, nonspecific distribution volume)",[5],27.7 ± 4.0 mL/g
same,VT Cingulate Cortex,[5],33.1 ± 4.7 mL/g
same,VT Hippocampus,[5],37.2 ± 5.9 mL/g
same,VT Midbrain,[5],53.6 ± 9.3 mL/g
same,VT Occipital Cortex,[5],30.6 ± 3.9 mL/g
same,VT Striatum,[5],45.3 ± 7.0 mL/g
same,VT Temporal Cortex,[5],33.9 ± 4.2 mL/g
same,VT Thalamus,[5],56.5 ± 10.3 mL/g
